The text below walks through data of patent US20240091319A1, “DUAL-ADMINISTRATION METHODS FOR TREATING RESPIRATORY DISTRESS” (THE TRUSTEES OF THE STEVENS INSTITUTE OF TECHNOLOGY, priority 2021, published 2024).

Where no end group is shown, it is not given here. The star is where a group is joined. Biotin = O=C1N[C@H]2[C@H](CS[C@H]2CCCCC(=O)*)N1

The subject of test [1] is alveolar-capillary barrier of heterogeneously flooded regions, isolated adult rat lung. The test is described as follows: Ventilation 'injury score' in the isolated adult rat lung (Method 2). Particulars: flooding solution in normal saline with 5% albumin; solutes at about the concentrations present in 1% SURVANTA; FIG. 2A. The text has this: Solutes are at about the same concentrations as present in 1% […]® solution. The surfactant protein B (SP-B) and SP-C used are isolated from pulmonary alveolar proteinosis patients; the SP-C, thus, is likely a mixture of fully-, partially- and non-palmitoylated peptide. Two forms of synthetic SP-C are used. One is sSP-Cff-leuc. […] Due to pre-dissolution of certain solutes, at high concentration, in non-aqueous solvents, the final dipalmitoylphosphatidylcholine (DPPC) solution contains 2% methanol; the final SP-B and SP-C solutions contain 1.6% chloroform and 0.8% methanol; and the final sSP-Cff-leuc solution contains 1.3% chloroform and 1.3% ethanol.
Base solution for all groups is normal saline.
Method 2. Ventilation ‘injury score’ in the isolated adult rat lung. An isolated adult rat lung is perfused with a physiologic solution (i.e. the solution is pumped through the lung vessels, including the capillaries) containing a low concentration of a fluorescent dye verified not to alter surface tension. A surface alveolus of the lung is micropunctured and a non-fluorescent test solution is injected. In experimental regions, a sufficiently large volume of liquid is injected to generate a pattern of heterogeneous alveolar flooding; in control regions, a sufficiently small volume of liquid is injected so that the liquid spontaneously clears from the region, leaving behind a micropunctured-but-aerated region. The region is imaged by confocal microscopy over a five minute baseline period at a constant transpulmonary pressure of 5 cm H2O. Five ventilation cycles are supplied to the lung at 0.33 Hz with the equivalent of a positive end-expiratory pressure of 15 cm H2O and with a tidal volume of 6 ml/kg body weight. The lung is then returned to a constant transpulmonary pressure of 5 cm H2O and imaged for 10 additional minutes. Alveolar liquid fluorescence at all time points is normalized by capillary fluorescence.
At baseline, alveolar liquid fluorescence (in flooded alveoli of experimental regions or in the liquid lining layer of control, aerated regions) is low and constant in all regions. Following ventilation, alveolar liquid fluorescence remains unchanged in aerated regions but continually increases with time in heterogeneously flooded regions. […] The increase above baseline in normalized alveolar liquid fluorescence at the last time point of the experiment is used as an injury score. The injury score, which indicates the rate of increase of normalized fluorescence following ventilation, correlates with the surface tension of the test solution.

The conditions of test [2]: low concentrations, in the presence of albumin; reported in an earlier patent publication; cited from earlier work.
Test [3] has as its system immature fetal rat lung. The test is described as follows: Opening pressure of the immature fetal rat lung after tracheal instillation (Method 3). Particulars: 4-5 μl instilled in trachea, embryonic day 18 or 19; with 5% albumin; 1% SURVANTA, 0.0005% SP-C; FIG. 3. The method, then:
Solution (4-5 μl), with solutes as specified, is instilled in the trachea of the fluid-filled immature (embryonic day 18 or 19) fetal rat lung. The pressure required to inflate the fetal rat lung for the first time is proportional to surface tension. […] The sSP-Cff-ion lock used is not biotinylated and is dissolved directly in normal saline without additional solvents. n=1 or 2/group.
Method 3. Opening pressure of the immature fetal rat lung. To inflate the initially liquid-filled fetal lung for the first time, the pressure applied at the trachea must be sufficient to overcome a capillary force that is proportional to the surface tension of the liquid in the lung. Thus, following instillation of a test solution in the trachea of the immature fetal rat lung, the opening pressure of the lung is indicative of the surface tension of the test solution. At embryonic day 18 or 19 (term=day 22), a fetus is delivered from a pregnant rat by uterotomy. […] The opening pressure that causes air to flow into the lungs is recorded, and is proportional to the solution surface tension.

Test [4] deals with lungs. Particulars: administered to the lungs; U.S. Pat. Nos. 9,504,796 and 9,693,990; cited from earlier work.
In test [5] the test system is adult rat lung. The test is described as follows: Facilitation of dilute […] by negatively charged solutes in the adult rat lung. The note with it: solute at 5 w/v %. The method, then: Method 1. […] Alveolar air pressure is determined with a transducer at the trachea of the constantly-inflated lung. Alveolar liquid phase pressure is determined by servo-nulling pressure measurement.

The test system of test [6] is alveoli of isolated rat lungs. Particulars: injected into alveoli of isolated lungs in situ; SRB 1 nM-1,000 nM with albumin 3-12 w/v % in alveolar liquid; cited from earlier work.
In test [7] the test system is rats with model lung injury. Nature of the test: Therapeutic IV SRB administration in vivo in rats with model lung injury (injurious ventilation, then 4-hr support). The note with it: rat, target plasma concentration 10 nM. The method, then:
The therapeutic efficiencies of clinical method analogues, including tracheal instillation, intravascular (IV) administration, etc. of various surface tension-lowering components can be tested in an animal following generation of model lung injury in the animal. For example, therapeutic IV SRB administration was tested in vivo in rats with model lung injury, as follows. All animals were handled in accord with a protocol approved by the Stevens Institute of Technology Institutional Animal Care and Use Committee. First, the model lung injury was generated by ventilating an anesthetized rat with an excessive tidal (breath) volume (VT) of 42 ml/kg body weight and an end-expiratory pressure of zero for 15 min to physically injure the lungs. Then, modeling clinical treatment of a patient with lung injury, VT was reduced to a protective level of 6 ml/kg, end-expiratory pressure was increased to a positive, protective level of 2 or 10 cm H2O, and the rat continued to be supported by mechanical ventilation for 4 hrs. SRB was administered IV, targeting a plasma concentration of 10 nM, after the injury period and at the start of the support period, mimicking therapeutic administration after the development of respiratory distress but prior to supportive treatment by mechanical ventilation. Oxygenation was tracked during the 4-hr support period. At the end of the support period, the rat was sacrificed, the lungs were isolated, and alveolar T was determined in situ in the isolated lungs using Method 1, above. In lungs from rats sacrificed at the end of the 4-hr support period, T was determined in one aerated alveolus and one flooded alveolus.

Test [8] concerns alveolar-capillary barrier of heterogeneously flooded regions, isolated adult rat lung. The note with it: injected into alveoli of isolated lungs in situ; SRB 1 nM-1,000 nM with albumin 3-12 w/v % in alveolar liquid; cited from earlier work.
Test [9] has as its system alveoli of isolated rat lungs. Nature of the test: Surface tension determination in the isolated adult rat lung (Method 1), solutions injected into alveoli in situ. The note with it: for surface tension (T): alveolar administration. The method, then: Method 1. Surface tension determination in the isolated adult rat lung. In an isolated (excised) adult rat lung, the alveolar liquid is labeled with a fluorescent dye verified not to alter surface tension. T is determined as follows at a curved region of the alveolar air-liquid interface (e.g., the meniscus in a flooded alveolus or the corner of an aerated alveolus). Alveolar air pressure is determined with a transducer at the trachea of the constantly-inflated lung. Alveolar liquid phase pressure is determined by servo-nulling pressure measurement. The three-dimensional interfacial radius of curvature is determined by confocal microscopy. The surface tension is calculated according to the Laplace relation.
Alveoli of isolated rat lungs were injected (or flooded) in situ with various solutions or components and the effects on alveolar surface tension were compared. The accompanying FIG. 1 includes a composite bar chart comparing T values resulting from treatment with various solutions or components. Details, including the compositions and concentrations of any administered solutions or components, are shown below the x-axis of the chart. In more detail, the rat lungs were micropunctured, optionally flooded with red blood cell (RBC) homogenate alone, with albumin, or with albumin and SRB. […] Half of these samples receiving the second injection were additionally subjected to 50 ventilation cycles at the noted pressures. Additional experimental details are described in the Methods section of Nguyen, T L and Perlman, C E, “Sulforhodamine B and exogenous surfactant effects on alveolar surface tension under acute respiratory distress syndrome conditions,” J. Appl. Physiol. 2020, 129(6), 1505-1513, the entire content of which is incorporated herein by reference.
With reference to the accompanying FIG. 1 and its chart, the first data point (bar) corresponds to normal, aerated alveoli in normal lungs, as a control. The red blood cell homogenate was added to the remaining data points to simulate epithelial damage and hemorrhaging of the alveolar capillaries, as may be present in some cases of ARDS.

Turning to “sSP-Cff-ion lock-B: variant of sSP-Cff-ion lock with a biotinylated N-terminal (Biotin-GIPFFPVHLKRLLIVVVVVELIVKVIVGALLMGL)”, the “injury score (thus surface tension)” value in [1] is on record as “lower injury score”. Further, the “surface tension in the lungs” value in test [2] was “can lower surface tension in the lungs”.

Turning to “GIPFFPVHLKRLLIVVVVVELIVKVIVGALLMGL (SEQ ID NO:3) (sSP-Cff-ion lock)”, in test [3], the “opening pressure (proportional to surface tension), compared with 100% SURVANTA without albumin” value is “at least as effective as 100% SURVANTA in the absence of albumin”. Also, in test [2], the “surface tension in the lungs” value is recorded as “can lower surface tension in the lungs”.

For the molecule `CCCCCCCCCCCCCCCC(=O)OC[C@H](COP(=O)([O-])OCC[N+](C)(C)C)OC(=O)CCCCCCCCCCCCCCC` [DPPC, dipalmitoylphosphatidylcholine, reference compound], the “injury score (thus surface tension)” value in test [1] was “not those containing DPPC or SP-B”.

Turning to rhodamine WT, in test [4], the “redistribution of edema liquid among alveoli” value is listed as “promoting equitable redistribution of edema liquid among alveoli” and the surface tension result is recorded as “capable of lowering surface tension”.

Regarding fibrinogen, the “facilitation of the surface activity of 1 vol % SURVANTA” value in test [5] is reported as “also facilitate 1 vol % SURVANTA®”.

For the molecule `CCN(CC)c1ccc2c(-c3ccc(S(=O)(=O)O)cc3S(=O)(=O)[O-])c3ccc(=[N+](CC)CC)cc-3oc2c1` [SRB, sulforhodamine B], the surface tension entry in test [6] is “lower surface tension”. In [7], the “plasma markers of lung injury and inflammation” value was “reduce plasma markers of lung injury and inflammation”; the “ventilation-induced lung injury (VILI)” value was “reduce VILI”. The “alveolar surface tension (T), determined in isolated lungs after sacrifice” value in test [7] (after injury period, end of 4-hr support period) is listed as “reduce surface tension specifically in flooded/injured alveoli”. In addition, the oxygenation entry in test [7] (tracked during 4-hr support period) is listed as “improve oxygenation”. Moreover, in [8], the “ventilation injury of flooded alveoli” value is recorded as “protect against ventilation injury of flooded alveoli”. Besides, in [4], the “redistribution of edema liquid among alveoli” value is reported as “promoting equitable redistribution of edema liquid among alveoli” and the surface tension entry is recorded as “capable of lowering surface tension”. In addition, the “speed of T lowering compared with exogenous surfactant” value in [9] (RBC homogenate plus albumin, FIG. 1) is given as “acts faster than exogenous surfactant”. In [9] (T increased by cell debris), the “surface tension (T)” value was “reduce T”. Moreover, the “surface tension (T)” value in test [9] (T increased by secretory phospholipase A2 (sPLA2)) is “reduce T”. In [9] (alveoli flooded with RBC homogenate, albumin and SRB included, FIG. 1 bars 4, 7, 8), the “alveolar surface tension (T)” value was “immediately decreased/normalized”.

For “GIPFFPVHLKRLKLLLLLLLLILLLILGALLMGL (SEQ ID NO:2) (sSP-Cff-leuc)”, the “injury score (thus surface tension)” value in [1] was “lower injury score”. For the same molecule, the “surface tension in the lungs” value in [2] is given as “can lower surface tension in the lungs”.

B1: SP-B: surfactant protein B isolated from pulmonary alveolar proteinosis patients (protein, UniProt P07988 201-279, looked up)
Pulmonary …: FPIPLPYCWLCRALIKRIQAMIPKGALAVAVAQVCRVVPLVAGGICQCLAERYSVILLDTLLGRMLPQLVCRLVLRCSM
modifications: Pulmonary surfactant-associated protein B
notes: surfactant protein B isolated from pulmonary alveolar proteinosis patients
In the case of B1, in test [1], the “injury score (thus surface tension)” value was “not those containing DPPC or SP-B”.
